The values that follow are results of earlier work, collected in patent publication US20210236604A1, “THERAPEUTIC TREATMENT FOR NEUROTROPHIC KERATOPATHY” (priority 2017, published 2021).

The subject of data set [1] is corneal epithelium wound healing. The settings on record: with substance-P; Nishida 2009; cited from earlier work.
A further data set deals with decubitus ulcers. The settings on record: Van Ort 1976; cited from earlier work.
The subject of a further data set is corneal ulcers. As to conditions: systemic administration; Aynsley 1945; cited from earlier work.
Data set [2] has as its system sub-basal plexus corneal nerves. The settings on record: diabetic mice; Chen 2013; cited from earlier work.
In another data set the test system is corneal abrasions. The settings on record: diabetic rats, cited from earlier work.
Data set [3] concerns experimentally-induced superficial skin wounds. As to conditions: diabetic and non-diabetic individuals; Greenway 1999; cited from earlier work.

In the case of Insulin-like growth factor-1 [IGF-1], in data set [1], the “corneal epithelium wound healing” value is “act synergistically with substance-P to promote corneal epithelium wound healing”.

Take insulin [topical insulin]: the “healing of decubitus ulcers” value in the data set with decubitus ulcers is recorded as “improve healing”. For the same substance, the “healing of corneal ulcers” value in the data set on corneal ulcers was “improved healing of corneal ulcers”. The “loss of sub-basal plexus corneal nerves” value in data set [2] is “slow the loss”. Further, the “wound healing after corneal abrasions” value with corneal abrasions (Zagon 2007, Klocek 2009) is given as “improves wound healing”. In addition, in the data set with corneal abrasions (Zagon 2007), the corneal sensation entry is given as “improves corneal sensation”. Moreover, in data set [3], the “healing of experimentally-induced superficial skin wounds” value is “improve healing”.
